Laboratory results: patent US20120116069A1, “GLUCOSE METABOLISM-IMPROVING AGENT AND GLUCOSE METABOLISM-IMPROVING COMPOSITION” (LION CORPORATION, priority 2009, published 2012)

Test system: human subjects having a fasting blood sugar level of 120 mg/dL to 140 mg/dL
Assay: Test of PT/PD intake for human: fasting and postprandial blood sugar level, blood indices
Format: in vivo
Details: for fasting blood sugar level: 8 mg capsule once a day for eight weeks; for fasting blood sugar level / postprandial blood sugar level: compared with the placebo-given group; for postprandial blood sugar level / 1-5AG / Glycoalbumin / HbA1c / Insulin (fasting): 8 mg capsule once a day; for postprandial blood sugar level: 30 min, 60 min and 120 min, starch food load
Method: (§1) Panax notoginseng powder (10 g) was suspended in 100 mL of 30% by mass aqueous solution of ethanol, and then saponins were extracted under heating for 2 hours. The obtained extract was hydrolyzed in the presence of hydrochloric acid to prepare an aglycon-containing product. The aglycon-containing product was treated with a silica gel column (SILICA GEL 60N, product of KANTO CHEMICAL CO., LTD.) to isolate and prepare panaxatriol (PT) having a purity of 99% by mass or higher.
Next, capsules each containing 8 mg of the thus-prepared panaxatriol (PT) were prepared. These capsules were given continuously for eight weeks to human subjects of a group (hereinafter may be referred to as “PT-given group”) to measure the fasting blood sugar level and a change in postprandial blood sugar level which was measured after giving to the human subjects predetermined meals such as a meal containing an excessive amount of starch food (e.g., a rice ball formed of 200 g of cooked rice (350 kcal)). Also, the blood indices measured were the blood HbA1c level, the blood glycoalbumin level, the blood 1·5AG level and the fasting blood insulin level.
The blood sugar levels were measured with a simplified blood sugar meter FREESTYLE (product of NIPRO Co.). The fasting blood sugar level and the fasting insulin level were measured at 9 a.m. The postprandial blood sugar level was measured every 30 min for 120 min from 9 a.m. to 11:30 a.m. after the predetermined starch food had been given to the subjects. The HbA1c, glycoalbumin and 1·5AG levels were measured by a routine method of a medical facility using the blood sampled at 9 a.m.
(§2) The 24 subjects were randomly divided to two groups and assigned to a placebo-given group, serving as a control, and a PT-given group. Also, the results were statistically analyzed using the Student's t-test comparing the placebo-given group and the PT-given group. The time at which the capsules were given was set to 10 a.m. every day so that the capsules were not given at the same time as a meal.
as §1, with “panaxadiol (PD)” for “panaxatriol (PT)”
Next, capsules each containing 8 mg of the thus-prepared panaxadiol (PD) were prepared. These capsules were given continuously for eight weeks to human subjects of a group (hereinafter may be referred to as “PD-given group”) to measure the fasting blood sugar level and a change in postprandial blood sugar level which was measured after giving to the human subjects predetermined meals such as a meal containing an excessive amount of starch food (e.g., a rice ball formed of 200 g of cooked rice (350 kcal)). Also, the blood indices measured were the blood HbA1c level, the blood glycoalbumin level, the blood 1·5AG level and the fasting blood insulin level.
as §2, with “and a PD-given group. Also,” for “and a PT-given group. Also,”, “and the PD-given group. The” for “and the PT-given group. The”, “time as the meal.” for “time as a meal.”

Row | SMILES | fasting blood sugar level | postprandial blood sugar level | 1-5AG (Week 0) | Glycoalbumin (Week 0) | HbA1c (Week 0) | Insulin (fasting) (Week 0) | 1-5AG (Week 2) | Glycoalbumin (Week 2) | HbA1c (Week 2) | Insulin (fasting) (Week 2) | 1-5AG (Week 4) | Glycoalbumin (Week 4) | HbA1c (Week 4) | Insulin (fasting) (Week 4) | 1-5AG (Week 8) | Glycoalbumin (Week 8) | HbA1c (Week 8) | Insulin (fasting) (Week 8)
1 | CC1(C)CCC[C@](C)([C@H]2CC[C@]3(C)[C@@H]2[C@H](O)C[C@@H]2[C@@]4(C)CC[C@H](O)C(C)(C)[C@@H]4CC[C@]23C)O1 [PD, panaxadiol] | decreased significantly | decrease significantly | 24.4 ± 7.8 µg/mL | 14.8 ± 1.4 % by mass | 5.1 ± 0.1 % by mass | 5.6 ± 1.4 μU/mL | 24.1 ± 7.2 µg/mL | 14.5 ± 1.2 % by mass | 5.1 ± 0.2 % by mass | 5.9 ± 2.2 μU/mL | 25.0 ± 7.3 µg/mL | 14.3 ± 1.3 % by mass | 5.1 ± 0.1 % by mass | 5.9 ± 3.8 μU/mL | 25.7 ± 6.4 µg/mL | 14.2 ± 1.1 % by mass | 4.8 ± 0.1 % by mass | 6.1 ± 2.6 μU/mL
2 | CC1(C)CCC[C@](C)([C@H]2CC[C@]3(C)[C@@H]2[C@H](O)C[C@@H]2[C@@]4(C)CC[C@H](O)C(C)(C)[C@@H]4[C@@H](O)C[C@]23C)O1 [PT, panaxatriol] | decreased significantly | decrease significantly | 24.3 ± 7.7 µg/mL | 14.7 ± 1.3 % by mass | 5.1 ± 0.1 % by mass | 5.5 ± 1.5 μU/mL | 24.2 ± 7.1 µg/mL | 14.5 ± 1.3 % by mass | 5.1 ± 0.2 % by mass | 6.1 ± 2.1 μU/mL | 25.0 ± 7.5 µg/mL | 14.3 ± 1.3 % by mass | 5.1 ± 0.1 % by mass | 5.8 ± 4.2 μU/mL | 25.6 ± 6.3 µg/mL | 14.2 ± 1.3 % by mass | 4.8 ± 0.2 % by mass | 6.2 ± 2.4 μU/mL
